Consider one compound from patent US12458732B2, “Porous composites with high-aspect ratio crystals” (W. L. Gore & Associates, Inc., priority 2013, dated 2025).

Data set [1] concerns carotid artery endothelial layer. The experiment in a line: ex vivo transfer of drug crystals from an ePTFE substrate to a vascular tissue. Further details: species or system swine. The settings on record: 60 sec compression at 5.4 atm. Here is the method:
Substrates of ePTFE of Examples 1 and 2 were coated with paclitaxel (10 mg/ml) or paclitaxel/urea (1:1 mass ratio; 10 mg/ml paclitaxel) according to Example 4. The substrates were examined under SEM to confirm the presence of high aspect paclitaxel crystal habits embedded and oriented in the ePTFE microstructure.
A freshly harvested carotid artery from >2 yr old swine (Animal Technologies Inc., Tyler TX) was slit axially using a scalpel blade, cut lengthwise into portions, everted, and the portions adhered to a glass microscope slide using cyanoacrylate adhesive (Loctite), luminal aspect up. Tissue portions were kept wet using phosphate-buffered saline until use.
The glass microscope slide containing the artery portion was gently placed, tissue side down, upon the coated ePTFE substrate, to expose the endothelial layer to the paclitaxel crystals. The endothelial layer was compressed at about 5.4 atm against the coated ePTFE substrate for 60 sec. The glass microscope slide containing the artery portion was then examined under SEM.

Data set [2] can be described thus: ethylene oxide sterilization of coated ePTFE substrates, SEM visualization. Format: physicochemical. The settings on record: conditioning about 24 hr, EtO dwell about 22 hr, 64° C., aeration about 12 hrs; samples of Examples 6 and 7. Here is the method:
Representative samples of Examples 6 and 7 were exposed to ethylene oxide sterilization, under conditions of conditioning for about 24 hr, an EtO gas dwell time of about 22 hr, a set point temperature of 64° C., and an aeration time of about 12 hrs. The samples were then visualized with SEM.

As for `CC(=O)O[C@H]1C(=O)[C@@]2(C)[C@H]([C@H](OC(=O)c3ccccc3)[C@]3(O)C[C@H](OC(=O)[C@H](O)[C@@H](NC(=O)c4ccccc4)c4ccccc4)C(C)=C1C3(C)C)[C@]1(OC(C)=O)CO[C@@H]1C[C@@H]2O` [paclitaxel], the “high aspect ratio of the crystals after compression (mechanical stability and strength)” value in data set [1] was “intact”. Besides, the “acicular habits, geometry, penetration into ePTFE and angles of projection after ethylene oxide sterilization” value in data set [2] is “unaffected”.
